From patent US10183079B2, “Hydrogel microspheres containing peptide ligands for growth factor regulation in blood products” (Wisconsin Alumni Research Foundation, priority 2016, dated 2019)
Square brackets hold non-standard residues; d marks the D form. Primed or numbered codes have the meaning given here. Ends that are not written are not given here. PEG27′ = polyethylene glycol 27 spacer; βAla = NCCC(=O)O

Tests used:
iPSC-EC = iPSC-EC proliferation, xCELLigence cell index; type: cell-based; conditions: 5 ng/mL VEGF, 48-hour culture; for iPSC-EC proliferation (cell index): soluble peptide
Method: Soluble branched VBP containing a PEG-27 spacer (C{βA}K({βA}{PEG-27}KSAPYEWNFDI{Ld}{Yd}{Ad}{Fd}E)2 (SEQ ID NO:10) was synthesized as described above using fmoc solid-phase peptide synthesis, wherein each amino acid after the branch point was added at 8 molar excess relative to the resin free amines with a corresponding 8 molar excess of DIPEA and 4 molar excess of HBTU during the coupling reaction. Peptide purity was assessed using reverse-phase high performance liquid chromatograph, and peptide identity was assessed using matrix-assisted laser desorption time-of-flight spectrometry. Peptide content was assessed using Ellman's assay for free thiol, and both soluble branched VBP2, PEG-27 and VBP2,a were dissolved in PBS for use in cell culture assay. The influence of soluble branched peptides on iPSC-EC proliferation was established using ACEA xCELLigence RTCA-DP. iPSC-EC used in this Example were cultured in iCell-EC Growth Medium (as described in Example 1 above), were passaged using TrypLE, and were used between passage 4-8 for experiments. E-plates (containing gold electrodes on the bottom of each well) were first coated with Fibronectin (Corning) and were seeded with iPSC-EC at a density of 6000 cells/cm^2. Seeded E-plates were cultured on RTCA-DP overnight in Growth Medium, and on the day of experiments, medium was removed and replaced with medium containing 0.1 vol % supplement (CDI) in VascuLife (LifeLine) and L-glutamine (LifeLine) and containing 5 ng/mL VEGF (LifeLine) and the specified concentrations of either VBP2, PEG-27 or VBP2,a. iPSC-EC proliferation was assessed by monitoring the cell index (indicating cell coverage over the gold-coated wells) over a 48-hour period in culture, and at the end of the 48-hour culture, cell indices were averaged for two replicate wells per condition. Statistical analysis at the end of the experiment was performed using two-way analysis of variance (ANOVA) and Tukey's post-hoc test for α=0.05.

[1] = tested on: choroidal neovascularization; assay: Mouse choroidal neovascularization model; type: in vivo; conditions: 2 μL/eye
Method: Microspheres (generated via sonication) were sanitized either by washing in 70% ethanol or by exposing to UV for 30 minutes prior to injection. Microspheres (F-VBP, F-Scramble, N-VBP, and N-Scramble) were suspended at 2 mg/mL in sterile PBS on the day of experiments. Soluble VBP or Scramble peptide (purchased from GenScript) were dissolved, sterile filtered through 0.2 μm filter, and diluted to 20 μg/mL in sterile PBS before experiments. SU4312 (Sigma) was dissolved in DMSO at 5 μg/mL, and Eylea (Regeneron Pharmaceuticals) was dissolved in PBS at 40 μg/mL and sterile filtered through 0.2 μm filter.
The mouse choroidal neovascularization model was generated as described in FIG. 8A. Briefly, C57BL/6J mice (Jackson Laboratories; 6-weeks old female) eyes were dilated using a drop of tropicamide (1%), and mice were anesthetized with ketamine and xylazine. Mice were subjected to photocoagulation (75 μm spot size, 0.1 s duration, 120 mW) at the 3-, 9-, and 12-o'clock positions of the posterior pole of the eye using an OcuLight GL diode laser (Iridex) with a glass coverslip over the eye. Microspheres were injected into each eye (2 μL/eye) using a pump microinjection apparatus (Harvard Apparatus) or Hamilton syringe. […] The area of ICAM-2+ staining (defined as mean CNV area) at each position (3-, 9-, and 12-o'clock) was quantified using Fiji and automated image thresholding. […]

(E{Fd}{Ad}{Yd}{Ld}IDFNWEYPASK)2KC (E[dF][dA][dY][dL]IDFNWEYPASKE[dF][dA][dY][dL]IDFNWEYPASKKC-NH2; also: branched dimer: two arms on K33) [VBP2,a]
iPSC-EC proliferation (cell index) at 5 μM (iPSC-EC; 5 μM soluble peptide): inhibited proliferation at a much greater extent than the VBP2, PEG27 | iPSC-EC proliferation (cell index) (iPSC-EC): inhibited iPSC-EC proliferation in culture with VEGF

C{βA}K({βA}{PEG-27}KSAPYEWNFDI{Ld}{Yd}{Ad}{Fd}E)2 (C[βAla]K[βAla][PEG27′]KSAPYEWNFDI[dL][dY][dA][dF]E[βAla][PEG27′]KSAPYEWNFDI[dL][dY][dA][dF]E; not fully specified (C-terminus); numbers in words are those of the source; also: branched dimer: two arms on K3) [VBP2, PEG27]
iPSC-EC proliferation (cell index) (iPSC-EC): inhibited iPSC-EC proliferation in culture with VEGF

Eylea: commercial anti-angiogenesis compound (Regeneron Pharmaceuticals), soluble VEGF inhibitor protein
mean CNV area, Eylea ([1]; 40 μg/mL, control IgG): inhibit angiogenesis in this model

Cc1cc(C)c(/C=C2\C(=O)Nc3ccccc32)[nH]1 [SU5416]
mean CNV area, small-molecule inhibitor ([1]; 5 μg/mL in DMSO, vehicle control): inhibit angiogenesis in this model
